Reference: patent US20250163038A1, “CBL-B MODULATORS AND USES THEREOF” (Nimbus Clio, Inc., priority 2021, published 2025)

Columns and labels:
[1] = tested on: Jurkat (clone E6-1) cells with NFAT luciferase reporter; assay: Jurkat reporter assay (NFAT Luciferase); assay type: cell-based; conditions: Homo sapiens; Jurkat NFAT luciferase reporter cells, anti-CD3 stimulation, 6 hr; read-out: Jurkat NFAT EC50
[2] = biological target: Recombinant human Cbl-b (aa 36-427) (Homo sapiens, UniProt Q13191); assay: Cbl-b Biochemical Assay (TR-FRET); conditions: read-out: TR-FRET hCbl-b IC50
[3] = biological target: T1, Recombinant human c-Cbl (aa 47-435) (Homo sapiens, UniProt P22681); assay: c-Cbl Biochemical Assay (TR-FRET); conditions: hc-Cbl Biochemical Assay (TR-FRET); read-out: TR-FRET hcCbl IC50
T1 sequence (P22681 47-435): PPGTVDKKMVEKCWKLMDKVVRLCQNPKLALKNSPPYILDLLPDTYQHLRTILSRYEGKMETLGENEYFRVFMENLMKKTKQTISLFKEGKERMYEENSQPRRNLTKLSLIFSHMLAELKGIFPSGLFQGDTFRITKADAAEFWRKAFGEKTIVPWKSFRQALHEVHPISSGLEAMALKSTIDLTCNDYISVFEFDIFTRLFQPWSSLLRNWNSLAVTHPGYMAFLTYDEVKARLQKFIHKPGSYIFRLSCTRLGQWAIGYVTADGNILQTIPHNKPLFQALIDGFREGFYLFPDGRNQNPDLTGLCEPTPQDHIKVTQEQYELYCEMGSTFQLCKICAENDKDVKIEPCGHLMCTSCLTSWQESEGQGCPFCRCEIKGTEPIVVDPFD

Chain of Recombinant human Cbl-b (aa 36-427) (Q13191 36-427): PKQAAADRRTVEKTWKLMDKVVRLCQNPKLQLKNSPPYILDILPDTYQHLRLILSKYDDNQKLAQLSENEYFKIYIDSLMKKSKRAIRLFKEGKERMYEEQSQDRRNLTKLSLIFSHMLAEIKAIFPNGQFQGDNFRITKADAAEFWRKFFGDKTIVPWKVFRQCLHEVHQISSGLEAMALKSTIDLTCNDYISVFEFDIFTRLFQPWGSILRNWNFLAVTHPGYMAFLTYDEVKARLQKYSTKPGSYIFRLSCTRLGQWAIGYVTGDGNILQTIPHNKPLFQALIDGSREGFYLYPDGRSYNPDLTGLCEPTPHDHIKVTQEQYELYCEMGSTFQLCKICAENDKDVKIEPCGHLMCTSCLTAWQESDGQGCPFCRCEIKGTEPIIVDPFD

Structure (SMILES)	EC50 [1] [µM]	IC50 [2] [µM]	IC50 [3] [µM]
Cn1cnnc1-c1cc(F)ccc1-c1cccc(-c2nc3cc(CNC4(CO)COC4)cc(C(F)(F)F)c3[nH]2)c1 [BS-1, (3-(((2-(4′-Fluoro-2′-(4-methyl-4H-1,2,4-triazol-3-yl)-[1,1′-biphenyl]-3-yl)-7-(trifluoromethyl)-1H-benzo[d]imidazol-5-yl)methyl)amino)oxetan-3-yl)methanol]		< 0.2	1 to 10
Cn1cnnc1-c1cc(F)ccc1-c1cccc(-c2nc3cc(CO)ccc3[nH]2)c1 [BW-3, (2-(4′-Fluoro-2′-(4-methyl-4H-1,2,4-triazol-3-yl)-[1,1′-biphenyl]-3-yl)-1H-benzo[d]imidazol-5-yl)methanol]		10 to 50	10 to 50
Cn1cnnc1-c1cc(C#N)ccc1-c1cccc(-c2nc3cc(CO)cc(C(F)(F)F)c3[nH]2)c1 [BZ-1, 3′-(5-(Hydroxymethyl)-7-(trifluoromethyl)-1H-benzo[d]imidazol-2-yl)-2-(4-methyl-4H-1,2,4-triazol-3-yl)-[1,1′-biphenyl]-4-carbonitrile]		1 to 10	10 to 50
Cn1cnnc1-c1cc(C#N)ccc1-c1cccc(-c2nc3cccc(C(F)(F)F)c3[nH]2)c1 [CB-1, 2-(4-Methyl-4H-1,2,4-triazol-3-yl)-3′-(4-(trifluoromethyl)-1H-benzo[d]imidazol-2-yl)-[1,1′-biphenyl]-4-carbonitrile]		10 to 50	10 to 50
Cn1cnnc1CC1(c2cccc(-c3cc(C(F)(F)F)cn(C)c3=O)c2)COC1 [CF-2, 1-Methyl-3-(3-(3-((4-methyl-4H-1,2,4-triazol-3-yl)methyl)oxetan-3-yl)phenyl)-5-(trifluoromethyl)pyridin-2(1H)-one]		10 to 50	10 to 50
Cn1cnnc1-c1cc(F)ccc1-c1cccc(-c2nc3ccc(CO)cc3o2)c1 [DC-3, (2-(4′-Fluoro-2′-(4-methyl-4H-1,2,4-triazol-3-yl)-[1,1′-biphenyl]-3-yl)benzo[d]oxazol-6-yl)methanol]		1 to 10	10 to 50
CC(=O)c1cc(C(F)(F)F)c2oc(-c3cccc(-c4ccc(F)cc4-c4nncn4C)c3)nc2c1 [DK-1, 1-(2-(4′-Fluoro-2′-(4-methyl-4H-1,2,4-triazol-3-yl)-[1,1′-biphenyl]-3-yl)-7-(trifluoromethyl)benzo[d]oxazol-5-yl)ethan-1-one]		< 0.2	1 to 10
C[C@@H]1CN(Cc2cc(C(F)(F)F)c3oc(-c4cccc(-c5ccccc5-c5nncn5C)c4)nc3c2)CCO1 [Example 0-4, (R)-2-(2′-(4-Methyl-4H-1,2,4-triazol-3-yl)-[1,1′-biphenyl]-3-yl)-5-((2-methylmorpholino)methyl)-7-(trifluoromethyl)benzo[d]oxazole]		0.2 to 1	10 to 50
Cn1cnnc1-c1ccccc1-c1cccc(-c2nc3cc(CO)cc(C(F)(F)F)c3o2)c1 [Example F-5, (2-(2′-(4-Methyl-4H-1,2,4-triazol-3-yl)-[1,1′-biphenyl]-3-yl)-7-(trifluoromethyl)benzo[d]oxazol-5-yl)methanol]		1 to 10	10 to 50
Cn1cnnc1-c1ccccc1-c1cccc(-c2nc3cc(C(=O)O)cc(C(F)(F)F)c3o2)c1 [Example H-1, 2-(2′-(4-Methyl-4H-1,2,4-triazol-3-yl)-[1,1′-biphenyl]-3-yl)-7-(trifluoromethyl)benzo[d]oxazole-5-carboxylic Acid]		10 to 50	10 to 50
C[C@H]1CCCN(C(=O)c2cc(C(F)(F)F)c3oc(-c4cccc(-c5ccccc5-c5nncn5C)c4)nc3c2)C1 [Example I-2, (S)-(2-(2′-(4-Methyl-4H-1,2,4-triazol-3-yl)-[1,1′-biphenyl]-3-yl)-7-(trifluoromethyl)benzo[d]oxazol-5-yl)(3-methylpiperidin-1-yl)methanone]		10 to 50	10 to 50
Cn1cnnc1-c1ccccc1-c1cccc(-c2nc3cc(C(C)(C)O)cc(C(F)(F)F)c3o2)c1 [Example J-1, 2-(2-(2′-(4-Methyl-4H-1,2,4-triazol-3-yl)-[1,1′-biphenyl]-3-yl)-7-(trifluoromethyl)benzo[d]oxazol-5-yl)propan-2-ol]		10 to 50	10 to 50
Cn1cnnc1-c1ccccc1-c1cccc(-c2nc3cccc(C(F)(F)F)c3o2)c1 [Example K-2, 2-(2′-(4-Methyl-4H-1,2,4-triazol-3-yl)-[1,1′-biphenyl]-3-yl)-7-(trifluoromethyl)benzo[d]oxazole]		10 to 50	10 to 50
C[C@@H]1CCCN(Cc2cc(C(F)(F)F)c3oc(-c4cccc(-c5ccccc5-c5nncn5C)c4)nc3c2)C1 [Example L-4, (R)-2-(2′-(4-Methyl-4H-1,2,4-triazol-3-yl)-[1,1′-biphenyl]-3-yl)-5-((3-methylpiperidin-1-yl)methyl)-7-(trifluoromethyl)benzo[d]oxazole]		1 to 10	10 to 50
Cn1cnnc1-c1ccccc1-c1cccc(-c2nc3cc(CN(C(=O)OC(C)(C)C)[C@@H]4CCC[C@H]4O)cc(C(F)(F)F)c3o2)c1 [Example M-5, tert-Butyl ((1R,2R)-2-hydroxycyclopentyl)((2-(2′-(4-methyl-4H-1,2,4-triazol-3-yl)-[1,1′-biphenyl]-3-yl)-7-(trifluoromethyl)benzo[d]oxazol-5-yl)methyl)carbamate]		0.2 to 1	10 to 50
COC(=O)c1cc(C(F)(F)F)c2oc(-c3cccc(-c4ccc(F)cc4-c4nncn4C)c3)nc2c1 [Example X-1, Methyl 2-(4′-fluoro-2′-(4-methyl-4H-1,2,4-triazol-3-yl)-[1,1′-biphenyl]-3-yl)-7-(trifluoromethyl)benzo[d]oxazole-5-carboxylate]		0.2 to 1	1 to 10

The next lines start with the values.

EC50 [1] [µM]	IC50 [2] [µM]	IC50 [3] [µM]	Structure (SMILES)
10 to 50	1 to 10		COC(=O)c1cc(C)c2oc(-c3cc(-c4ccc(F)cc4-c4nncn4C)cc(C4CC4)n3)nc2c1 [AES-3, Methyl 2-{6-cyclopropyl-4-[4-fluoro-2-(4-methyl-1,2,4-triazol-3-yl)phenyl]pyridin-2-yl}-7-methyl-1,3-benzoxazole-5-carboxylate]
	0.2 to 1	10 to 50	Cn1cnnc1-c1cc(F)ccc1-c1cccc(-c2nc3cccc(C(F)(F)F)c3[nH]2)c1 [BI-1, 2-(4′-Fluoro-2′-(4-methyl-4H-1,2,4-triazol-3-yl)-[1,1′-biphenyl]-3-yl)-7-(trifluoromethyl)-1H-benzo[d]imidazole]
	0.2 to 1	10 to 50	Cn1cnnc1-c1cc(F)ccc1-c1cccc(-c2nc3cc(CNCC(C)(C)O)ccc3[nH]2)c1 [BX-2, 1-(((2-(4′-Fluoro-2′-(4-methyl-4H-1,2,4-triazol-3-yl)-[1,1′-biphenyl]-3-yl)-1H-benzo[d]imidazol-5-yl)methyl)amino)-2-methylpropan-2-ol]
	10 to 50	10 to 50	COC(=O)c1[nH]c(=O)c(-c2cccc(-c3ccccc3-c3nncn3C)c2)cc1C(F)(F)F [CH-2, Methyl 5-(2′-(4-methyl-4H-1,2,4-triazol-3-yl)-[1,1′-biphenyl]-3-yl)-6-oxo-3-(trifluoromethyl)-1,6-dihydropyridine-2-carboxylate]
	< 0.2	1 to 10	CCN(Cc1cc(C(F)(F)F)c2oc(-c3cccc(-c4ccc(F)cc4-c4nncn4C)c3)nc2c1)CC1(C#N)CCCC1 [CO-2, 1-((Ethyl((2-(4′-fluoro-2′-(4-methyl-4H-1,2,4-triazol-3-yl)-[1,1′-biphenyl]-3-yl)-7-(trifluoromethyl)benzo[d]oxazol-5-yl)methyl)amino)methyl)cyclopentane-1-carbonitrile]
1 to 10	10 to 50		Cn1cnnc1-c1cc(F)ccc1-c1cccc(-c2nc3cc(C(=O)O)cc(C(F)(F)F)c3o2)c1 [DB-1, 2-(4′-Fluoro-2′-(4-methyl-4H-1,2,4-triazol-3-yl)-[1,1′-biphenyl]-3-yl)-7-(trifluoromethyl)benzo[d]oxazole-5-carboxylic Acid]
	0.2 to 1	1 to 10	Cn1cnnc1-c1cc(F)ccc1-c1cccc(-c2nc3cc(C(=O)N[C@@H]4CCC[C@@H]4O)cc(C(F)(F)F)c3o2)c1 [DB-2, 2-(4′-Fluoro-2′-(4-methyl-4H-1,2,4-triazol-3-yl)-[1,1′-biphenyl]-3-yl)-N-((1R,2S)-2-hydroxycyclopentyl)-7-(trifluoromethyl)benzo[d]oxazole-5-carboxamide]
	10 to 50	10 to 50	COC(=O)c1cc(C(F)(F)F)c2oc(-c3cccc(-c4ccccc4-c4nncn4C)c3)nc2c1 [Example G-1, Methyl 2-(2′-(4-methyl-4H-1,2,4-triazol-3-yl)-[1,1′-biphenyl]-3-yl)-7-(trifluoromethyl)benzo[d]oxazole-5-carboxylate]
	0.2 to 1	1 to 10	Cn1cnnc1-c1cc(F)ccc1-c1cccc(-c2nc3cccc(C(F)(F)F)c3o2)c1 [Example S-1, 2-(4′-Fluoro-2′-(4-methyl-4H-1,2,4-triazol-3-yl)-[1,1′-biphenyl]-3-yl)-7-(trifluoromethyl)benzo[d]oxazole]
10 to 50	1 to 10		Cn1cnnc1-c1cc(F)ccc1-c1cccc(-c2nc3cc(NCCC4CCC4)cc(C(F)(F)F)c3o2)c1 [HU-1, N-(2-Cyclobutylethyl)-2-(4′-fluoro-2′-(4-methyl-4H-1,2,4-triazol-3-yl)-[1,1′-biphenyl]-3-yl)-7-(trifluoromethyl)benzo[d]oxazol-5-amine]
